Test results published in patent US20050220861A1, “Colonic release compostion” (priority 2002, published 2005).
Read-outs that look alike come from different tables or passages of the source. Values belong to the molecule of their own block, whether it stands above or below them.

Assays:
[1] = parameters: unit not given beside the values; details: in vivo, po, 40 mg; cited from earlier work
[2] = human, in vivo, po
Procedure: Four phase I studies have been completed. In the first of these, an ethyl cellulose to amylose ratio of 5:1 was used with a 10% weight gain. The second and third studies, investigated the effect of a thicker coat (20% weight gain) at a 4:1 ethylcellulose to amylose ratio. All other features of the comparison formulation were the same.
(§1) Capsules containing coated pellets of prednisolone sodium metasulphobenzoate, equivalent to 60 mg prednisolone, were administered to seven healthy, fasted volunteers. Progress of the dose through the gastrointestinal tract was followed over 24 hours by gamma-scintigraphy after the co-administration of ethylcellulose coated ^111indium labelled non-pareils. Plasma levels of prednisolone were determined at various time points up to 48 hours after administration. Excreted drug pellets were harvested over five days and residual drug levels determined.
(§2) The trial comprised a combined gamma scintigraphic and pharmacokinetic study with excreted pellet analysis to the same design as the first Phase I study (above) following administration of the prednisolone sodium metasulphobenzoate ester at a dose of 94.2 mg, equivalent to 60 mg of prednisolone. In this second study, the thickness of the coating of the pellets was increased and the proportion of amylose was increased in the coat.
(§3) The trial comprised a combined gamma scintigraphic and pharmacokinetic study with excreted pellet analysis to the same design as the first Phase I study (above) following administration of prednisolone sodium metasulphobenzoate ester at a dose of 94.2 mg, equivalent to 60 mg prednisolone. In this third study, administering the coated prednisolone pellets to volunteers in the fed and fasted state was examined.
The pellets were produced as described in Example 2.
This trial used a higher dose of prednisolone sodium metasulphobenzoate, equivalent to 100 mg of prednisolone.

[3] = parameters: Cmax (prednisolone) / AUC (prednisolone): unit not given beside the values; details: cited from earlier work
[4] = for drug content of the formulation released from the pellets / prednisolone sodium metasulphobenzoate retained in the excreted pellets, mean: 3rd Phase I
Procedure: as §1, §2, §3

[5] = McIntyre et al 1985, 20 mg, rectal

- AUC (prednisolone) ([2]; 60 mg): 1441 ± 541
- Cmax (prednisolone) ([2]; 60 mg): 168 ± 56
- AUC ([2]; 100 mg): 152 ng·mL·h
- Cmax ([2]; 100 mg): 18.9 ng/mL
- amount of prednisolone recovered from pellets harvested from the faeces ([4]; 1st Phase I, 60 mg oral, average of all subjects): 2.5 ± 1.12 mg
- prednisolone recovered from excreted pellets, % of the administered dose ([4]; 1st Phase I, all cases): less than 5%
- drug excreted in the pellets, % of the administered dose ([4]; 2nd Phase I): less than 2%
- arrival of the drug pellets at the ileo-caecal junction ([4]; 2nd Phase I, amylose:ethylcellulose 1:4, 20% weight gain): 5.9 ± 2.0 h
- mean quantity of drug excreted in the pellets, determined as prednisolone sodium metasulphobenzoate ([4]; 2nd Phase I, dose 94.2 mg ester): 1.7 mg
- drug content of the formulation released from the pellets ([4]; fasted): over 90%
- prednisolone sodium metasulphobenzoate retained in the excreted pellets, mean ([4]; fasted, dose 94.2 mg ester): 6.1 ± 1.0 mg
- drug content of the formulation released from the pellets ([4]; fed): over 90%
- prednisolone sodium metasulphobenzoate retained in the excreted pellets, mean ([4]; fed, dose 94.2 mg ester): 3.1 ± 1.2 mg
Compound: C[C@]12C=CC(=O)C=C1CC[C@@H]1[C@@H]2[C@@H](O)C[C@@]2(C)[C@H]1CC[C@]2(O)C(=O)COC(=O)c1cccc(S(=O)(=O)[O-])c1.[Na+] [Prednisolone metasulphobenzoate, prednisolone sodium metasulphobenzoate]
- AUC (prednisolone) [1]: 2189 ± 475
- Cmax (prednisolone) [1]: 242 ± 58
- AUC ([3]; in vivo, 60 mg): 632 ± 509 ng·mL·h
- AUC (prednisolone) ([3]; in vivo, 60 mg): 632 ± 509
- Cmax ([3]; in vivo, 60 mg): 147 ± 79 ng/mL
- Cmax (prednisolone) ([3]; in vivo, 60 mg): 147 ± 79

Compound: C[C@]12C=CC(=O)C=C1CC[C@@H]1[C@@H]2[C@@H](O)C[C@@]2(C)[C@H]1CC[C@]2(O)C(=O)COP(=O)(O)O [Prednisolone-21-phosphate]
- AUC (prednisolone) [3, 5]: 599 ± 310
- Cmax (prednisolone) [3, 5]: 148 ± 75
